Test results published in patent US11965199B2, “21-hydroxylation of steroids” (EUROAPI, priority 2014, dated 2024).
Where two headings read alike, the source gives them in different places.

What was measured:
human CYP21 [1] = biological target: T1, human CYP21 (Homo sapiens, UniProt P08686); experiment: Whole cell biotransformation (21-hydroxylation) in E. coli C43(DE3); assay type: cell-based; design: lacking the hydrophobic anchor region, i.e. a truncation of 29 N-terminal amino acid residues; 6xHis (C); expressed in transfected cells; host or cells: E. coli C43(DE3) transformed with pET17b-based bi-/tricistronic vectors (p21h_...) and pGro12
T1 sequence (P08686 with tags, fused parts or gaps): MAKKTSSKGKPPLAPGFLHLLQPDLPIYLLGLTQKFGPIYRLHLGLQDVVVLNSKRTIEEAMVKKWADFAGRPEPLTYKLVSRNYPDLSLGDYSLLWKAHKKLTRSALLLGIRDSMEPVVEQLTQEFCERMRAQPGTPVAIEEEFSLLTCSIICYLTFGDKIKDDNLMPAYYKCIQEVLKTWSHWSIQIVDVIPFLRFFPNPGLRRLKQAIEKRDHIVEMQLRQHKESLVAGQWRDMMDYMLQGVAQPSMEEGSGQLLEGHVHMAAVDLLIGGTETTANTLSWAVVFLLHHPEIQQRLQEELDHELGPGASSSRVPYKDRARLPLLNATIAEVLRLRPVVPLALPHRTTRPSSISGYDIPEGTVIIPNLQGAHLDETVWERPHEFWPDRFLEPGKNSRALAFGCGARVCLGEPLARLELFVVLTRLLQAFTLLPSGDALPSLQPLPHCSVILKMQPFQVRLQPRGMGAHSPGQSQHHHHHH

bovine CYP21 [2] = biological target: T2, bovine CYP21 (Bos taurus, UniProt P00191); experiment: as above; assay type: cell-based
T2 construct: lacking the hydrophobic anchor region, i.e. a truncation of 29 N-terminal amino acid residues; 6xHis (C); expressed in transfected cells
T2 sequence (P00191 with tags, fused parts or gaps): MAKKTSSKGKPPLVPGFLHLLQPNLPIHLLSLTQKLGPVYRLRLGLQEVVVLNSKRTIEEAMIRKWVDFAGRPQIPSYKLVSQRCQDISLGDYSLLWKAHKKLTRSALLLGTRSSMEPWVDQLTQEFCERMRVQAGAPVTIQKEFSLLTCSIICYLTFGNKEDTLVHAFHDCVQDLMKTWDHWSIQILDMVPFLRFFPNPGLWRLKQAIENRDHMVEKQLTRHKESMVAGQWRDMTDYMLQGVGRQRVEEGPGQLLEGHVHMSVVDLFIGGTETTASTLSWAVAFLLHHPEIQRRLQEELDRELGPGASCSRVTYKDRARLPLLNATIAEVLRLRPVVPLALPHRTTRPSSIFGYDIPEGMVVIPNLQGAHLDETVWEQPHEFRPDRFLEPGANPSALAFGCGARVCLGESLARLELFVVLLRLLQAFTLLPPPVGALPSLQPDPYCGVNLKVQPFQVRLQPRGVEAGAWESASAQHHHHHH

bovine CYP21 [3] = biological target: T2, bovine CYP21; experiment: In vitro substrate conversion with purified enzymes (reconstituted cytochrome P450 system); assay type: biochemical; settings: defined buffer, NADPH regeneration system, electron transfer proteins of Table 2
Description: (§1) Both enzymes were expressed in the E. coli strain C43(DE3) by coexpression of the E. coli chaperones GroEL/GroES encoded in the vector pGro12. These chaperones ensure a correct protein folding which is important for an incorporation of the heme prosthetic group. In FIG. 3 an SDS-PAGE and a CO difference spectrum of purified bovine CYP21 are shown. […] To determine the binding of medrane to both isozymes the binding constants (KD-values) were determined.
(§2) For an efficient substrate conversion, both isoforms require an electron transfer system which consists of two parts, the cytochrome P450 enzyme itself and one or two electron transfer proteins which are essential for a hydroxylation reaction. Without these transfer proteins, no reaction will take place.
(§3) For in vitro studies and a verification of a substrate conversion, all redox partners were purified.

human CYP21 [4] = biological target: T1, human CYP21; experiment: as above; assay type: biochemical; design: lacking the hydrophobic anchor region, i.e. a truncation of 29 N-terminal amino acid residues; 6xHis (C); made in house; host or cells: E. coli C43(DE3), co-expressing GroEL/GroES from pGro12; settings: defined buffer, NADPH regeneration system, electron transfer proteins of Table 2
Description: as §1, §2, §3

[5] = human CYP21 with redox partners, GroEL/GroES co-expressed
[6] = bovine CYP21 with redox partners, GroEL/GroES co-expressed

hydroxylation at position 21 (steroid conversion) (human CYP21 [1]; [5])	hydroxylation at position 21 (steroid conversion) (bovine CYP21 [2]; [6])	Compound	hydroxylation at position 21 (steroid conversion) (human CYP21 [1])	hydroxylation at position 21 (steroid conversion) (bovine CYP21 [2])	in vitro conversion of medrane to premedrol (bovine CYP21 [3])	in vitro conversion of medrane to premedrol (human CYP21 [4])
–	–	CC(=O)[C@H]1CC[C@H]2[C@@H]3CC[C@H]4CC(=O)CC[C@]4(C)[C@H]3CC[C@]12C [5α-dihydroprogesterone]	able to hydroxylate	able to hydroxylate	–	–
able to hydroxylate	able to hydroxylate	CC(=O)[C@@]1(O)CC[C@H]2[C@@H]3C[C@H](C)C4=CC(=O)C=C[C@]4(C)[C@H]3[C@@H](O)C[C@@]21C [Deltamedrane, deltamedrane]	–	–	–	–
able to hydroxylate	able to hydroxylate	CC(=O)[C@H]1CC[C@H]2[C@@H]3CCC4=CC(=O)CC[C@]4(C)[C@H]3CC[C@]12C [Progesterone, progesterone]	–	–	–	–
–	–	medroxyprogesterone	able to hydroxylate	able to hydroxylate	–	–

Compound	hydroxylation at position 21 (steroid conversion) (human CYP21 [1]; [5])	hydroxylation at position 21 (steroid conversion) (bovine CYP21 [2]; [6])	hydroxylation at position 21 (steroid conversion) (human CYP21 [1])	hydroxylation at position 21 (steroid conversion) (bovine CYP21 [2])	in vitro conversion of medrane to premedrol (bovine CYP21 [3])	in vitro conversion of medrane to premedrol (human CYP21 [4])
CC(=O)[C@@]1(O)CCC2C3C[C@H](C)C4=CC(=O)CC[C@]4(C)C3[C@@H](O)C[C@@]21C (stereo partly drawn) [Medrane, medrane]	able to hydroxylate	able to hydroxylate	–	–	very efficiently	very efficiently
